Molecules are shown by their SMILES.

Consider 20 molecules from patent publication US9018370B2, “Derivatives of uridine phosphate and their uses in protein binding assays” (King's College London of Strand, priority 2009, dated 2015).

The nature of data set [1]: Absorbance and fluorescence spectra of 5-R-UMP analogues. It is filed as physicochemical. The settings on record: for λmax: absorbance; for Emmax: fluorescence emission. On the procedure:
UV absorbance spectra were recorded on a PerkinElmer Lambda 25 UV-Vis spectrometer at ambient temperature in FarUV quartz cells (path length 1.0 cm). Fluorescence spectra were recorded on a PerkinElmer LS-45 spectrometer at ambient temperature in a quartz micro fluorescence cell (path length 1.0 cm).

Data set [2] can be described thus: Quantum yield determination of nucleotide derivatives. It is filed as physicochemical. The note with it: for Q.Y.: in water. How it is done:
Nucleotide derivatives were serially diluted in H2O (10, 20, 30, 40 and 50 μM for absorbance measurements, and 0.2, 0.4, 0.6, 0.8, 1 μM for fluorescence measurements), and UV absorbance and fluorescence emission (with λmax absorbance=λem fluorescence) were recorded for all samples. To determine quantum yields, for each absorbance and fluorescence spectrum the area under the curve (AUC) was calculated by numerical integration, applying the mid-point rule. For each compound, AUCabs and AUCem were then plotted over compound concentration according to AUCabs=A×[conc]+B and AUCem=A′×[conc]+B′. From these linear plots, the gradients A and A′ were extracted, and for each compound the specific quantum yield φs, under these experimental conditions, was calculated as the ratio A′/A. Quantum yields determined with this protocol for two reference compounds, 2-aminopyridine and L-tryptophan (2-aminopyridine: 0.60; L-tryptophan: 0.14) were in exact agreement with literature values. The quantum yields for reference compounds were used to calculate the general quantum yield φg for each nucleotide analogue, according to φg=φref×(A′/A)/(A′/A)ref.
Fluorescent uracil nucleosides and (sugar-)nucleotides can be obtained by connecting a known chromophore/fluorophore via an electronically nonconjugating linker to the natural uracil base (Sinkeldam et al. Chem. Rev. 2010, 110, 2579-2619). The photophysical features of the resulting nucleoside/(sugar-)nucleotide analogue are usually very similar to that of the parent fluorophore (Sinkeldam et al. Chem. Rev. 2010, 110, 2579-2619). In contrast, extending the uracil by electronically conjugating the base to additional aromatic moieties typically generates a new chromophore with unique, and somewhat unpredictable, photophysical characteristics (Sinkeldam et al. Chem. Rev. 2010, 110, 2579-2619). To precisely measure the intensity of the fluorescence emitted by the brightest fluorophores described above, we determined their quantum yield. These measurements were performed in water following the procedure reported by Nighswander-Remper and the results are shown in Table B below. Quantum yield determinations confirmed that 2p and 2q display the highest fluorescence and are 10-fold brighter than any other nucleotide analogues with a compact aryl- or heteroaryl substituent in position 5 that have been reported to date (Sinkeldam et al. Chem. Rev. 2010, 110, 2579-2619). That 2p and 2q absorb and fluoresce at long wavelength is an attractive feature, which makes these fluorophores suitable for analyses in biological environments. Additionally, we found the intensity of the fluorescence emission is conserved for UDP and UTP analogues, thereby providing attractive fluorescence probes candidates for fluorimetric assays.

Data set [3] addresses T1, B. taurus α-1,3-GalT (Bos taurus, UniProt P14769).
T1 construct: made in house
In words: Donor kinetics of UDP-Gal derivatives with GalT, HPLC. The data set is classed as biochemical. The note with it: MnCl2 20 mM, MOPS pH 7.2, 37° C. On the procedure: J. Am. Chem. Soc. 122, 261-1269 (2000); Rich, J. R.; Szpacenko, A.; Palcic, M. M. & Bundle, D. R. Glycosyltransferase-Catalyzed Synthesis of Thiooligosaccharides. Angew. Chem. Int. Ed. […] ChemBioChem 9, 1632-1640 (2008). […] (total volume 100 μL, all concentrations are final concentrations). The reactions were stopped by cooling in dry ice. Samples were analysed immediately by HPLC on a PerkinElmer Series 200 machine equipped with a Supelcosil LC-18-T column (5 μm, 25 cm×4.6 mm), a column oven (set to 30° C.), and a diode array detector. Each sample (injection volume 40 μL) was eluted at 1.5 mL/min with a gradient of methanol (10-30%) against 0.5 M phosphate buffer (adjusted to pH 8 with triethylamine). […] Km and vmax values were determined by fitting data points to a Michaelis-Menten curve using GraFit 5.0.10.

Data set [4] can be described thus: Quantum yield determination of UDP-Gal derivatives 3a-d. The settings on record: in H2O. The data set is classed as physicochemical.
Procedure: To determine quantum yields, for each absorbance and fluorescence spectrum the area under the curve (AUC) was calculated by numerical integration, applying the mid-point rule. For each compound, AUCabs and AUCfluo were then plotted over compound concentration according to AUCabs=A×[conc]+B (equation 1) and AUCfluo=A′×[conc]+B′ (equation 2). […] The quantum yields for reference compounds were used to calculate the general quantum yield φg for each compound 3a-d, according to φg=φref×(A′/A)/(A′/A)ref.

T1 sequence (P14769 whole entry): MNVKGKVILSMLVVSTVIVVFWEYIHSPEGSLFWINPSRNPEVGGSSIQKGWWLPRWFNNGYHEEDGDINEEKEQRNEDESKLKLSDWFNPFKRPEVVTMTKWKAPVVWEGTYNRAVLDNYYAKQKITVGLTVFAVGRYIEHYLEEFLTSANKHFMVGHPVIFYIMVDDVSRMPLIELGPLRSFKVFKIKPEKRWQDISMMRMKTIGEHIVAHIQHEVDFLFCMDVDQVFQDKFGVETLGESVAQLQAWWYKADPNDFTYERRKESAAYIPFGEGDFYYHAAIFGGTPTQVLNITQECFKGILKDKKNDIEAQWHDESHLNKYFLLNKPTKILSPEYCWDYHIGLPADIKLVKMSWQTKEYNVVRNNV

As to `O=c1[nH]c(=O)n([C@@H]2O[C@H](COP(=O)(O)O)[C@@H](O)[C@H]2O)cc1-c1ccccc1` [2a, 5-Phenyluridine-5′-monophosphate], in data set [1], the “Fluo Intensity at 100 μM” value stood at 40 a.u, the λmax is reported as 278 nm and the Emmax is recorded as 403 nm.
Turning to `O=c1[nH]c(=O)n([C@@H]2O[C@H](COP(=O)(O)O)[C@@H](O)[C@H]2O)cc1-c1ccc(Cl)cc1` [2b, 5-(4-Chlorophenyl)-uridine-5′-monophosphate], in data set [1], the “Fluo Intensity at 100 μM” value is listed as 78 a.u, the λmax is recorded as 281 nm and the Emmax worked out at 398 nm. The molecule also had a Q.Y. in data set [2] of 0.001.
`Cc1ccc(-c2cn([C@@H]3O[C@H](COP(=O)(O)O)[C@@H](O)[C@H]3O)c(=O)[nH]c2=O)cc1[N+](=O)[O-]` [2c]: in data set [1], the “Fluo Intensity at 100 μM” value is recorded as 6.7 a.u, the λmax is listed as 279 nm and the Emmax worked out at 434 nm.
As to `CC(C)(C)OC(=O)NCc1cccc(-c2cn([C@@H]3O[C@H](COP(=O)(O)O)[C@@H](O)[C@H]3O)c(=O)[nH]c2=O)c1` [2d, 5-(3-N-BOC-aminomethylphenyl)-uridine-5′-monophosphate], in data set [1], the “Fluo Intensity at 100 μM” value is listed as 11.6 a.u, the λmax is 281 nm and the Emmax amounted to 427 nm.
`O=c1[nH]c(=O)n([C@@H]2O[C@H](COP(=O)(O)O)[C@@H](O)[C@H]2O)cc1-c1cccc(O)c1` [2e, 5-(3-Hydroxyphenyl)-uridine-5′-monophosphate]: the λmax in data set [1] was found to be 285 nm.
As to `O=c1[nH]c(=O)n([C@@H]2O[C@H](COP(=O)(O)O)[C@@H](O)[C@H]2O)cc1-c1ccccc1O` [2f, 5-(2-Hydroxyphenyl)-uridine-5′-monophosphate], in data set [1], the “Fluo Intensity at 100 μM” value is on record as 0.9 a.u, the λmax amounted to 273 nm and the Emmax was determined as 415 nm.
Regarding `O=c1[nH]c(=O)n([C@@H]2O[C@H](COP(=O)(O)O)[C@@H](O)[C@H]2O)cc1-c1ccc2ccccc2c1` [2g, 5-(2-Naphtyl)-uridine-5′-monophosphate], in data set [1], the “Fluo Intensity at 100 μM” value is listed as 32.2 a.u, the λmax is 221 nm and the Emmax is given as 450 nm.
In the case of `O=C(O)c1ccc(-c2cn([C@@H]3O[C@H](COP(=O)(O)O)[C@@H](O)[C@H]3O)c(=O)[nH]c2=O)cc1` [2h, 5-(4-Carboxyphenyl)-uridine-5′-monophosphate], in data set [1], the “Fluo Intensity at 100 μM” value amounted to 17.6 a.u, the λmax turned out to be 283 nm and the Emmax came out at 411 nm.
Taken in the same sequence, the figures for `O=c1[nH]c(=O)n([C@@H]2O[C@H](COP(=O)(O)O)[C@@H](O)[C@H]2O)cc1-c1ccc(C(F)(F)F)cc1` [2i, 5-(4-Trifluoromethylphenyl)-uridine-5′-monophosphate] were 5.3 a.u, 280 nm and 383 nm.
Taken in the same sequence, the figures for `COc1cncc(-c2cn([C@@H]3O[C@H](COP(=O)(O)O)[C@@H](O)[C@H]3O)c(=O)[nH]c2=O)c1` [2j, 5-(5-Methoxy-3-pyridyl)-uridine-5′-monophosphate] were 74.8 a.u, 289 nm and 414 nm.
For `CS(=O)(=O)c1cccc(-c2cn([C@@H]3O[C@H](COP(=O)(O)O)[C@@H](O)[C@H]3O)c(=O)[nH]c2=O)c1` [2k, 5-(3-Methanesulfonylphenyl)-uridine-5′-monophosphate], in data set [1], the “Fluo Intensity at 100 μM” value is recorded as 5.3 a.u, the λmax worked out at 278 nm and the Emmax is recorded as 382 nm.
Turning to `COc1ccc(-c2cn([C@@H]3O[C@H](COP(=O)(O)O)[C@@H](O)[C@H]3O)c(=O)[nH]c2=O)cc1` [2l, 5-(4-Methoxyphenyl)-uridine-5′-monophosphate], in data set [1], the “Fluo Intensity at 100 μM” value worked out at 603 a.u, the λmax is reported as 279 nm and the Emmax amounted to 444 nm. In addition, the Q.Y. in data set [2] turned out to be 0.02.
On the same counts, the results for `O=c1[nH]c(=O)n([C@@H]2O[C@H](COP(=O)(O)O)[C@@H](O)[C@H]2O)cc1-c1ccco1` [2m, 5-(Furan-2-yl)-uridine-5′-monophosphate] are 497 a.u, 314 nm, 437 nm and 0.04.
In the case of `O=Cc1ccc(-c2cn([C@@H]3O[C@H](COP(=O)(O)O)[C@@H](O)[C@H]3O)c(=O)[nH]c2=O)o1` [2n], in data set [1], the “Fluo Intensity at 100 μM” value was found to be 640 a.u, the λmax was 348 nm and the Emmax was determined as 431 nm. In data set [2], this molecule yielded a Q.Y. of 0.04.
On the same counts, the results for `O=Cc1ccsc1-c1cn([C@@H]2O[C@H](COP(=O)(O)O)[C@@H](O)[C@H]2O)c(=O)[nH]c1=O` [2o, 5-(3-Formylthien-2-yl)-uridine-5′-monophosphate] are 387 a.u, 267 nm, 453 nm and 0.02.
For `CC(=O)c1ccc(-c2cn([C@@H]3O[C@H](COP(=O)(O)O)[C@@H](O)[C@H]3O)c(=O)[nH]c2=O)s1` [2p, 5-(5-Acetylthien-2-yl)-uridine-5′-monophosphate], in data set [1], the “Fluo Intensity at 100 μM” value is given as more than 650 a.u, the λmax is reported as 348 nm and the Emmax came to 433 nm. For the same molecule, in data set [2], the “Brightness relative to any other reported 5-aryl/heteroaryl nucleotide analogues” value came out at 10 fold and the Q.Y. is given as 0.24.
As to `O=c1[nH]c(=O)n([C@@H]2O[C@H](COP(=O)(O)OP(=O)(O)O[C@H]3O[C@H](CO)[C@H](O)[C@H](O)[C@H]3O)[C@@H](O)[C@H]2O)cc1-c1ccccc1` [3a, 5-Phenyl UDP-α-D-galactose], in data set [3], the Km came to 96 ± 8 µM and the turnover number (kcat) was 0.0021 s⁻¹. Also, in data set [4], the Quantum yield is less than 0.01.
With `COc1ccc(-c2cn([C@@H]3O[C@H](COP(=O)(O)OP(=O)(O)O[C@H]4O[C@H](CO)[C@H](O)[C@H](O)[C@H]4O)[C@@H](O)[C@H]3O)c(=O)[nH]c2=O)cc1` [3b, 5-(4-Methoxyphenyl)-UDP-α-D-galactose], in data set [3], the Michaelis constant (Km) stood at 82 ± 11 µM and the kcat came to 0.004 s⁻¹. In data set [4], this molecule gave a Quantum yield of 0.024.
Taken in the same sequence, the figures for `O=c1[nH]c(=O)n([C@@H]2O[C@H](COP(=O)(O)OP(=O)(O)O[C@H]3O[C@H](CO)[C@H](O)[C@H](O)[C@H]3O)[C@@H](O)[C@H]2O)cc1-c1ccco1` [3c, 5-(2-Furyl)-UDP-α-D-galactose] were 69 ± 13 µM, 0.0044 s⁻¹ and 0.04.
On to `O=c1[nH]c(=O)n([C@@H]2O[C@H](COP(=O)(O)O)[C@@H](O)[C@H]2O)cc1I` [compound 1, 5-Iodouridine-5′-monophosphate], for which, in data set [1], the λmax is 262 nm and the Emmax was found to be 377 nm.
